Measured values as given in US7196110B2, “N-substituted tricyclic 3-aminopyrazoles as inhibitors for the treatment of cell proliferative disorders” (Janssen Phamaceutica N.V., priority 2002, dated 2007).

Target: T1, PDGF-receptor beta enzyme comprising the tyrosine kinase domain (Homo sapiens, UniProt P09619)
T1 construct: from amino acid 545 to 1106 of GenBank Access NO: AAA36427
Assay: Inhibition of PDGF-receptor kinase activity (cell-free, PLC1 peptide, 33P Flashplate)
Type: biochemical
Conditions: PDGF-R kinase activity; for inhibition at 10 µM: compound at 10 uM, read-out: Percent Inhibition @ 10 uM; for IC50: read-out: IC50
Description: PDGF-R kinase activity was assayed by its ability to phosphorylate one of its target proteins, PLCγ, in a cell-free system, in particular, a PLC1 peptide comprising the tyrosine residue where the phosphorylation occurs was used for the assay.
10× Kinase Buffer (500 mM Tris-HCl pH=8, 100 mM MgCl2, 1 mM Na3VO4); 10 mM DTT (final concentration at 1 mM in assay); 10 mM ATP (final concentration at 5 μM in assay); ^33P-γ-ATP (Cat. No.: NEG/602H. 2000-3000 Ci/mmol) purchased from NEN; Purified, soluble, recombinant PDGF-receptor beta enzyme comprising the tyrosine kinase domain (from amino acid 545 to 1106 of GenBank Access NO: AAA36427 ) at 0.4 mg/mL; Enzyme Dilution Buffer (50 mM Tris-HCl pH=8.0, 0.1% BSA); Wash/Stop Buffer (PBS +100 mM EDTA); NEN Streptavidin Flashplates (Cat. No.: SMP-103) which binds to the biotinylated PLC1 peptide but not the PDGF-R enzyme; PLC1 peptide (Biotin-[…]-Amide) at 1 mM in 50 mM Tris-HCL with pH of 8.0.
Reagents were first mixed according the following regimen:
The above reaction mixture was dispensed into each well of a Flashplate at 70 μl/well. To test the effect of a compound on PDGF-R kinase activity, the test compound either in a fixed concentration or in serially diluted concentrations in 100% DMSO was added to appropriate wells at 1 μl/well.
Enzyme PDGF-R was diluted in Enzyme dilution buffer as following:
The kinase reaction was initiated by adding 30 μl of diluted PDGF-R enzyme solution to each well on the Flashplate containing hot ATP and PLC1, except wells of column 12 rows E through H, which were used to calculate the plate background. The Flashplate was swirled to mix and was incubated at 30° C. for 60 minutes. Then, the reaction mixture was discarded and the Flashplate was washed 3 times each with 200 μl Wash/Stop Buffer. Subsequently, each well on the Flashplate was filled with 200 μl of Wash/Stop buffer. The amount of ^33P retained in each well was measured using a Packard TopCount after the plate was sealed with a transparent plate sealer.
The percentage of inhibition of the test compound on PDGF-R kinase activity is defined as […].
In order to test the potency of inhibition of present compounds, an IC50 for an individual compound was measured using the above procedure. As used herein, the IC50 for PDGF-R kinase activity refers to the concentration of an inhibitor at which the activity of the PDGF-R kinase is reduced by one-half as compared with reactions containing no inhibitor.

T1 sequence (P09619 545-1106): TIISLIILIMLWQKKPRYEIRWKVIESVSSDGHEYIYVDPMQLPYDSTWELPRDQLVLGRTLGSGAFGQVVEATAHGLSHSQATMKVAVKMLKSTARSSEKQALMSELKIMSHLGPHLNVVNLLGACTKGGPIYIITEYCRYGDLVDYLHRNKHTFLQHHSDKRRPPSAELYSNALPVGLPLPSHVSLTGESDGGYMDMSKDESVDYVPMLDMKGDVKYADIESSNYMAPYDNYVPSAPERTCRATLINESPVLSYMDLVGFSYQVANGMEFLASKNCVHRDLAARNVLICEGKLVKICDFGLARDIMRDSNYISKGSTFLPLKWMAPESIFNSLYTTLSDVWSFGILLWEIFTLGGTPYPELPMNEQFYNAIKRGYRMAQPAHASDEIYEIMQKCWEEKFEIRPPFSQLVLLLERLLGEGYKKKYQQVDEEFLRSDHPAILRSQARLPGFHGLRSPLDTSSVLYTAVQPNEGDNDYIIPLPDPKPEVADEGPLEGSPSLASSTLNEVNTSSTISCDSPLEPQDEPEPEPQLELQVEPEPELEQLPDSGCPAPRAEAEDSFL

Work on `CN1CCN(c2ccc3c(c2)Cc2c-3n[nH]c2Nc2ccccc2)CC1` [Compound 64, [6-(4-Methyl-piperazin-1-yl)-2,4-dihydro-indeno[1,2-c]pyrazol-3-yl]-phenyl-amine] yielded an inhibition at 10 µM of 118% and an IC50 of 449 nM.
Compound `c1ccc(Nc2[nH]nc3c2Cc2cc(N4CCCCC4)ccc2-3)cc1` [Compound 65, Phenyl-(6-piperidin-1-yl-2,4-dihydro-indeno[1,2-c]pyrazol-3-yl)-amine] has an inhibition at 10 µM of 76% and an IC50 of 1540 nM.
`Nc1ccc2c(c1)Cc1c-2n[nH]c1Nc1ccccc1` [Compound 66, N3-Phenyl-2,4-dihydro-indeno[1,2-c]pyrazole-3,6-diamine] gave an inhibition at 10 µM of 108% and an IC50 of 92 nM.
Work on `COc1cc2c(cc1OC)-c1n[nH]c(NC3CCCCC3)c1C2` [Compound 67, Cyclohexyl-(6,7-dimethoxy-2,4-dihydro-indeno[1,2-c]pyrazol-3-yl)-amine] yielded an inhibition at 10 µM of 77% and an IC50 of 617 nM.
Compound `COc1cc2c(cc1OC)-c1n[nH]c(NCCN3CCOCC3)c1C2` [Compound 69, (6,7-Dimethoxy-2,4-dihydro-indeno[1,2-c]pyrazol-3-yl)-(2-morpholin-4-yl-ethyl)-amine] has an inhibition at 10 µM of 18%.
With `COc1cc2c(cc1OC)-c1n[nH]c(Nc3cc(C(F)(F)F)cc(C(F)(F)F)c3)c1C2` [Compound 70, (3,5-Bis-trifluoromethyl-phenyl)-(6,7-dimethoxy-2,4-dihydro-indeno[1,2-c]pyrazol-3-yl)-amine] the inhibition at 10 µM was 41.5% and the IC50 was 16800 nM.
In the case of `CN(C)CCCOc1cccc2c1Cc1c-2n[nH]c1Nc1ccccc1` [Compound 71, [5-(3-Dimethylamino-propoxy)-2,4-dihydro-indeno[1,2-c]pyrazol-3-yl]-phenyl-amine], the inhibition at 10 µM is reported as 110% and the IC50 is reported as 185 nM.
`CN(C)CCCOc1cccc2c1Cc1c-2n[nH]c1Nc1cccc(Cl)c1` [Compound 72, (3-Chloro-phenyl)-[5-(3-dimethylamino-propoxy)-2,4-dihydro-indeno[1,2-c]pyrazol-3-yl]-amine] gave an inhibition at 10 µM of 96% and an IC50 of 283 nM.
With `CN(C)CCCOc1cccc2c1Cc1c-2n[nH]c1Nc1ccc(F)cc1` [Compound 73, [5-(3-Dimethylamino-propoxy)-2,4-dihydro-indeno[1,2-c]pyrazol-3-yl]-(4-fluoro-phenyl)-amine] the inhibition at 10 µM was roughly 30% and the IC50 was greater than 50000 nM.
`COc1cccc(Nc2[nH]nc3c2Cc2c(OCCCN(C)C)cccc2-3)c1` [Compound 74, [5-(3-Dimethylamino-propoxy)-2,4-dihydro-indeno[1,2-c]pyrazol-3-yl]-(3-methoxy-phenyl)-amine] gave an inhibition at 10 µM of 102% and an IC50 of 424 nM.
Work on `CN(C)CCCOc1cccc2c1Cc1c-2n[nH]c1Nc1cccnc1` [Compound 75, [5-(3-Dimethylamino-propoxy)-2,4-dihydro-indeno[1,2-c]pyrazol-3-yl]-pyridin-3-yl-amine] yielded an inhibition at 10 µM of 115% and an IC50 of 575 nM.
With `COc1cc2c(cc1OC)-c1n[nH]c(Nc3ccc(Br)cc3C(F)(F)F)c1C2` [Compound 76, (4-Bromo-2-trifluoromethyl-phenyl)-(6,7-dimethoxy-2,4-dihydro-indeno[1,2-c]pyrazol-3-yl)-amine] the inhibition at 10 µM was 16% and the IC50 was greater than 50000 nM.
`COC(=O)c1cccc(Nc2[nH]nc3c2Cc2c(OCCCN(C)C)cccc2-3)c1` [Compound 77, 3-[5-(3-Dimethylamino-propoxy)-2,4-dihydro-indeno[1,2-c]pyrazol-3-ylamino]-benzoic acid methyl ester] was tested, and the inhibition at 10 µM was 108% and the IC50 was 217 nM.
`COc1cc2c(cc1OC)-c1n[nH]c(Nc3ccco3)c1C2` [Compound 78, (6,7-Dimethoxy-2,4-dihydro-indeno[1,2-c]pyrazol-3-yl)-furan-2-yl-amine] was tested, and the inhibition at 10 µM was 85% and the IC50 was 1290 nM.
`COc1cc2c(cc1OC)-c1n[nH]c(Nc3ccc4c(c3)CCC4)c1C2` [Compound 79, (6,7-Dimethoxy-2,4-dihydro-indeno[1,2-c]pyrazol-3-yl)-indan-5-yl-amine] gave an inhibition at 10 µM of 56% and an IC50 of 3710 nM.
In the case of `COc1cc2c(cc1OC)-c1n[nH]c(NCCN3CCCCC3)c1C2` [Compound 81, (6,7-Dimethoxy-2,4-dihydro-indeno[1,2-c]pyrazol-3-yl)-(2-piperidin-1-yl-ethyl)-amine], the inhibition at 10 µM is reported as 29% and the IC50 is reported as 85900 nM.
In the case of `COc1ccc2c(c1)Cc1c-2n[nH]c1Nc1ccc(F)cc1` [Compound 82, (4-Fluoro-phenyl)-(6-methoxy-2,4-dihydro-indeno[1,2-c]pyrazol-3-yl)-amine], the inhibition at 10 µM is reported as 79% and the IC50 is reported as 273 nM.
Work on `COc1ccc2c(c1)Cc1c-2n[nH]c1Nc1cccc(Br)c1` [Compound 83, (3-Bromo-phenyl)-(6-methoxy-2,4-dihydro-indeno[1,2-c]pyrazol-3-yl)-amine] yielded an inhibition at 10 µM of 93% and an IC50 of 71.9 nM.
Compound `COc1ccc2c(c1)Cc1c-2n[nH]c1Nc1cccnc1` [Compound 84, (6-Methoxy-2,4-dihydro-indeno[1,2-c]pyrazol-3-yl)-pyridin-3-yl-amine] has an inhibition at 10 µM of 86% and an IC50 of 710 nM.
`COc1ccc2c(c1)Cc1c-2n[nH]c1Nc1cc(OC)ccc1OC` [Compound 85, (2,5-Dimethoxy-phenyl)-(6-methoxy-2,4-dihydro-indeno[1,2-c]pyrazol-3-yl)-amine] gave an inhibition at 10 µM of 61% and an IC50 of 5820 nM.
`COc1ccc2c(c1)Cc1c-2n[nH]c1Nc1ccc(OC)c(OC)c1` [Compound 86, (3,4-Dimethoxy-phenyl)-(6-methoxy-2,4-dihydro-indeno[1,2-c]pyrazol-3-yl)-amine] showed an inhibition at 10 µM of 57% and an IC50 of 2530 nM.
With `COc1ccc2c(c1)Cc1c-2n[nH]c1Nc1cc(F)ccc1F` [Compound 87, (2,5-Difluoro-phenyl)-(6-methoxy-2,4-dihydro-indeno[1,2-c]pyrazol-3-yl)-amine] the inhibition at 10 µM was 91% and the IC50 was 69 nM.
Compound `COc1ccc2c(c1)Cc1c-2n[nH]c1Nc1ccc(OC(F)(F)F)cc1` [Compound 88, (6-Methoxy-2,4-dihydro-indeno[1,2-c]pyrazol-3-yl)-(4-trifluoromethoxy-phenyl)-amine] has an inhibition at 10 µM of 42% and an IC50 of 20800 nM.
Work on `COc1ccc2c(c1)Cc1c-2n[nH]c1Nc1ccc(C(F)(F)F)cc1` [Compound 89, (6-Methoxy-2,4-dihydro-indeno[1,2-c]pyrazol-3-yl)-(4-trifluoromethyl-phenyl)-amine] yielded an inhibition at 10 µM of 88% and an IC50 of 886 nM.
In the case of `CN(C)c1ccc2c(c1)Cc1c-2n[nH]c1Nc1ccccc1` [Compound 92, N6,N6-Dimethyl-N3-phenyl-2,4-dihydro-indeno[1,2-c]pyrazole-3,6-diamine], the inhibition at 10 µM is reported as 75% and the IC50 is reported as 383 nM.
With `c1ccc(Nc2[nH]nc3c2CCc2ccccc2-3)cc1` [Compound 93, (4,5-Dihydro-2H-benzo[g]indazol-3-yl)-phenyl-amine] the inhibition at 10 µM was 88% and the IC50 was 1030 nM.
`c1ccc(Nc2[nH]nc3c2Cc2sccc2-3)cc1` [Compound 94, (5,7-Dihydro-1-thia-4,5-diaza-cyclopenta[a]pentalen-6-yl)-phenyl-amine] showed an inhibition at 10 µM of 95% and an IC50 of 415 nM.
`Brc1cccc(Nc2[nH]nc3c2Cc2cc4c(cc2-3)OCO4)c1` [Compound 95, (3-Bromo-phenyl)-(2,9-dihydro-5,7-dioxa-2,3-diaza-cyclopenta[a]-s-indacen-1-yl)-amine] was tested, and the inhibition at 10 µM was 91% and the IC50 was 63 nM.
`Fc1cccc(Nc2[nH]nc3c2Cc2cc4c(cc2-3)OCO4)c1` [Compound 96, (2,9-Dihydro-5,7-dioxa-2,3-diaza-cyclopenta[a]-s-indacen-1-yl)-(3-fluoro-phenyl)-amine] was tested, and the inhibition at 10 µM was 93% and the IC50 was 76 nM.
For `Cc1cccc2c1Cc1c-2n[nH]c1Nc1ccc(F)cc1` [Compound 98, (4-Fluoro-phenyl)-(5-methyl-2,4-dihydro-indeno[1,2-c]pyrazol-3-yl)-amine], the inhibition at 10 µM was 26% and the IC50 was 30700 nM.
`Cc1cccc2c1Cc1c-2n[nH]c1Nc1cccc(F)c1` [Compound 99, (3-Fluoro-phenyl)-(5-methyl-2,4-dihydro-indeno[1,2-c]pyrazol-3-yl)-amine] was tested, and the inhibition at 10 µM was 87.5% and the IC50 was 1470 nM.
In the case of `Cc1cccc2c1Cc1c-2n[nH]c1Nc1cccnc1` [Compound 100, (5-Methyl-2,4-dihydro-indeno[1,2-c]pyrazol-3-yl)-pyridin-3-yl-amine], the inhibition at 10 µM is reported as 81% and the IC50 is reported as 1720 nM.
